The NIST ThermoML archive (doi:10.1021/acs.jced.6b00008)
Numbers after ± are expanded uncertainties.

Key:
[1] = Crystal; DTA
[2] = Molar enthalpy of transition or fusion; conditions: Crystal; DSC

Normal melting temperature [1]: 160.96 ± 3.4 °C | Molar enthalpy of transition or fusion [2]: 3.92 ± 0.335 kcal/mol
SMILES: O=C(/C=C/c1ccc(O)c(O)c1)O[C@H](Cc1ccc(O)c(O)c1)C(=O)O [rosmarinic acid]
